Results reported in US5690956A, “Hair care perming agent” (priority 1995, dated 1997).

Experiments:
[1] = system: hair, especially the cuticle; conditions: elevated pH, usually pH 9-12; prior art; cited from earlier work
disulfide bonds in hair [2] = conditions: laboratory setting, prior practice; cited from earlier work
[3] = system: soluble proteins, such as antibodies; conditions: in the presence of 6M guanidine or 8M urea; cited from earlier work
Water solubility of TCEP = format: physicochemical
human hosts = test: Human safety of the reducing agent
disulfide bonds in hair [4] = test: Reduction (cleavage) of disulfide bonds in hair protein; format: biochemical, human
Source text: The extent of cleavage of disulfide bonds using thioglycollate depends on the concentration of the reducing agent and on the amount of mechanical stress applied to the hair shaft. In spite of the conditions used in performing a reduction of the disulfide bonds, in prior practice in a laboratory setting, no more than 65-70% of the protein cystine bonds in hair were disrupted. In the actual practice of hair perming, the reduction level is even lower, ranging between 19% and 43%. When using thioglycollate as a reducing agent, the optimal perming condition occurs using ambient temperatures and a 5% (w/v) solution of thioglycollate.
2) The reducing reactions are conducted under conditions of ambient or slightly elevated temperature in a mildly acidic buffer media ranging in a pH from 2.0-5.6 and with a TCEP concentration range of 5-10% w/v. The reaction occurs over a period of about 15 minutes.

[5] = system: hair, especially the cuticle; test: Damage to hair (cuticle); design: species or system human; conditions: vs sulfhydryl reducing agents in alkaline pH
[6] = Stability of TCEP (aqueous acidic media, air oxidation, temperature); format: physicochemical

O=C(O)CS [thioglycollate, thioglycollic acid]
cuticle damage [1]: severe cuticle damage
protein cystine bonds in hair disrupted (extent of reduction) (disulfide bonds in hair [2]): 65-70%

Cl.O=C(O)CCP(CCC(=O)O)CCC(=O)O [TCEP, Tris-(2-carboxy-ethyl) phosphine hydrochloride]
function as reducing agent on soluble proteins [3]: function well
solubility (Water solubility of TCEP): ~310 mg/mL
toxicity to human hosts / safety profile (human hosts): not toxic to human hosts
reactivity toward other functional groups found in hair (disulfide bonds in hair [4]): essentially non-reactive
reduction of some of the most stable disulfide bonds in hair (disulfide bonds in hair [4]): Selective and complete reduction
effectiveness in reducing disulfide bonds vs dithiothreitol, mercaptoethanol, or thioglycollic acid (disulfide bonds in hair [4]; acidic pH): more effective than traditional sulfhydryl reducing agents
period over which the reducing reaction occurs (disulfide bonds in hair [4]; pH 2.0-5.6, TCEP 5-10% w/v, ambient or slightly elevated temperature): about 15 minutes
damage to hair, especially the cuticle [5]: lower instance of damaged hair
resistance to air oxidation ([6]; air): substantially resistant to air oxidation
stability in aqueous acidic media ([6]; aqueous acidic media): stable in aqueous acidic media
stability when exposed to fluctuations in temperature ([6]; fluctuations in temperature): very stable
